Laboratory results from patent US20070196360A1, “SUCCINIMIDE AND MALEIMIDE DERIVATIVES AND THEIR USE AS TOPOISOMERASE II CATALYTIC INHIBITORS” (TOPOTARGET A/S, priority 2001, published 2007).
“Also recorded” adds a separate entry of the source. Read-outs that look alike come from different tables or passages of the source. Marks after values point to notes of the source that are not given here.

Columns and labels:
[1] = tested on: OC—NYH cells; assay: Alkaline elution (single strand DNA breaks, SSBs)
Procedure: This assay thus provides information concerning a given compounds ability to cause (or antagonize in the case of topoisomerase II catalytic inhibitors in the combination with classical topoisomerase II poisons) DNA damage in intact cells.
The assays for SSBs and for DPCs (DNA-protein cross-links) are performed according to Kohn et. al (23).
For measurement of single-strand breaks (SSBs), L1210 cells used as internal standard are exposed to 100 μM H2O2 for 60 min on ice, corresponding to an irradiation dose of 300 rad as described by Szmigiero and Studzian (25). OC—NYH cells are incubated in medium supplemented with the indicated drug at 37° C. for the specified periods, washed in 10 mL ice-cold PBS and then lysed on the filter (Nucleopore, 2.0 μM pore size) with 5 mL of SDS-EDTA lysis solution (2% SDS, 0.1 glycine and 0.025 M Na2EDTA) at pH 10, followed by addition of 1.5 mL SDS-EDTA lysis solution supplemented with 0.5 mg/mL proteinase K. Mixing of standard and experimental cells is done immediately prior to lysis. […] Fractions are collected at 20-min intervals for 2 h. Filters are treated with 400 μL 1 N HCl for 1 h at 60° C., cooled and 0.4 M NaOH is added prior to scintillation counting.

[2] = target: T1, purified topoisomerase II α (Homo sapiens, UniProt P11388); assay: Decatenation assay (kDNA decatenation); format: biochemical
Text: The decatenation assay is a direct measurement of a given compounds inhibitory action on purified topoisomerase II enzyme. The general role of the topoisomerase II enzyme in living cells is to cause decatenation of catenated DNA during cell division. If a compound is able to inhibit this decatenation, the compound is an inhibitor of the topoisomerase II enzyme. While this assay is capable of determining whether a given compound is active against topoisomerase II, information concerning the exact mode of action is not provided.
Topoisomerase II catalytic activity is measured by kDNA decatenation. ^3H labelled kDNA is isolated from Crithidia fasciculata (ATCC, Manassas, Va.) as described in (24). Briefly, relevant concentrations of the test compound in buffer (50 mM Tris-Cl, pH8, 120 mM KCl, 10 mM MgCl2, 1.0 mM ATP, […]) and purified topoisomerase II α is incubated with […] for 15 min at 37° C. in a final volume of 20 μl. After addition of stop buffer/loading dye mix (5% Sarkosyl, 0.0025% bromophenol blue, 25% glycerol), samples are loaded on 1% agarose/0.5% ethidium bromide gels and run in TBE buffer containing […] ethidium bromide at 100V for approximately 50 min and photographed under UV light. In addition, loading wells are cut out and scintillation counted to obtain numerical values. These values are then plotted against drug concentration to obtain dose-response curves enabling the determination of IC50 values for individual compounds.

[3] = tested on: cultured human cancer cells; assay: Clonogenic assay (cytotoxicity; antagonism of topoisomerase II poison cytotoxicity); details: for inhibition of the toxicity of the classical poisons (protection): poisons VP16, DAU, IDA; for IC50: Homo sapiens, read-out: IC50 (clonogenic assay)
Text: The information derived from the clonogenic assay is cytotoxicity.
A 3-week clonogenic assay is used. […] The number of cells is adjusted to obtain 2000 to 3000 colonies in the control dishes. Finally, the colonies are counted.

[4] = animal studies and patients; cited from earlier work
[5] = target: T1, purified topoisomerase II α; assay: Plasmid cleavage assay; format: biochemical
Procedure: The plasmid cleavage assay is capable of assessing wether a given compound stimulates topoisomerase II mediated DNA cleavage in the test tube. A modification of the protocol described in (Burden et al., 2001) is used. 350 ng purified human topoisomerase II α, 400 ng pUC18 DNA, and increasing concentrations of drugs were incubated for 6 min at 37° C. in 20 μl topoisomerase II cleavage buffer (10 mM TRIS-HCL pH 7.9, 50 mM NaCl, 50 mM KCl, 5 mM CaCl2, 1 mM EDTA, 15 μg/ml BSA and 1 mM Na2ATP, all from Sigma Chemical Co., St. Louis, Mo., USA). Next, the cleavable complex was trapped by adding 2 μl 10% SDS. After vigorous vortexing 1.5 μl 0.25 M EDTA and 2 μl proteinase K (0.8 μg/ml) in proteinase buffer (50 mM Tris-HCL pH=7.9, 1 mM CaCl2) was added and the samples vortexed. After a 30 min incubation at 45° C., 5 μl loading buffer (5% Sarkosyl, 0.0025% bromophenol blue, 25% glycerol) was added and the samples were exposed to 70° C. for 5 min. Next, samples were run through a 0.8 % agarose gel in 1× TAE buffer for three hours at 5 V/cm to separate different topological forms of plasmid DNA. Finally the gels were strained in distilled water containing 10 μg/ml ethidium bromide for 15 min followed by de-strained in distilled water for one hour before they were photographed in UV light. […] Further, compounds not capable of stimulating topoisomerase mediated DNA cleavage while being active in the decatenation assay are also classified as topoisomerase II catalytic inhibitors.

[6] = tested on: extractable topoisomerase II in OC—NYH cells; assay: Band depletion assay
Procedure: OC—NYH cells are incubated for 1 h at 37 C in RPMI 1640 with 10% of fetal calf serum with the desired compounds for test. Thereafter, whole cell lysates were obtained at 4 C. Exponentially growing cells were harvested and washed in PBS. Cells are resuspended in 0.2 mL ELB-buffer (NaCl 0.25 M, NP40 0.1%, HEPES 50 mM, EDTA 5 mM) containing aprotinin 1 μg/ml, leupeptin 1 μg/ml, DTT 1M and PMSF 0.3 mM and lysed for 30 min. Pellets are spun down at 20000×g for 20 min. The protein concentration of the supernatants is measured, and the supernatants are diluted with an equal volume of glycerol.
After heating the nuclear extracts for 5 min at 95 C, the sample is immediately loaded on a 7% SDS-PAGE gel containing 5% glycerol. Thereafter, all steps are performed at RT. The separated proteins are transferred to Trans-Blot® Nitrocellulose, in a Mini Trans-blot® Electrophoretic Transfer Cell with 25 mM Tris, 192 mM glycine and 205 v/v methanol, pH 8.3 at 210 mA for 1 h. Membranes are blocked in 10% milk in TBS-T for 1 h and probed with either topoisomerase II as (1:1000) 1 h. Horseradish-peroxidase-conjugated donkey-antirabbit antibodies are used as secondary antibodies. The blots are developed using ECL™reagent 1 min and thereafter exposed on films for 5 min. Quantification of can be made by densitometric scanning.

[7] = tested on: NCI-H69, NCI-H69/DAU and NCI-H69/VP; assay: Clonogenic assay on NCI-H69 and multi drug resistant derivatives; format: cell-based, human; details: NCI-H69 versus NCI-H69/DAU and NCI-H69/VP
Text: Further corroboration of catalytic inhibitory activity of compounds of formula M was found in clonogenic assays on human lung cancer cell lines H69/dau and H69/VP because no resistance to compounds of formula M was found in these cell lines which are selected to be daunorubicin and, etopside (VP-16) resistant respectively.
A 3-week clonogenic assay is used. […] Finally, the colonies are counted.

[8] = read-out: IC50, topoisomerase II decatenation
[9] = compound 75 uM, daunorubicin 0.3 uM
[10] = etoposide 50 uM, compound between 5 and 625 uM
[11] = FIG. 7, read-out: IC50, decatenation assay

T1 sequence (P11388 whole entry): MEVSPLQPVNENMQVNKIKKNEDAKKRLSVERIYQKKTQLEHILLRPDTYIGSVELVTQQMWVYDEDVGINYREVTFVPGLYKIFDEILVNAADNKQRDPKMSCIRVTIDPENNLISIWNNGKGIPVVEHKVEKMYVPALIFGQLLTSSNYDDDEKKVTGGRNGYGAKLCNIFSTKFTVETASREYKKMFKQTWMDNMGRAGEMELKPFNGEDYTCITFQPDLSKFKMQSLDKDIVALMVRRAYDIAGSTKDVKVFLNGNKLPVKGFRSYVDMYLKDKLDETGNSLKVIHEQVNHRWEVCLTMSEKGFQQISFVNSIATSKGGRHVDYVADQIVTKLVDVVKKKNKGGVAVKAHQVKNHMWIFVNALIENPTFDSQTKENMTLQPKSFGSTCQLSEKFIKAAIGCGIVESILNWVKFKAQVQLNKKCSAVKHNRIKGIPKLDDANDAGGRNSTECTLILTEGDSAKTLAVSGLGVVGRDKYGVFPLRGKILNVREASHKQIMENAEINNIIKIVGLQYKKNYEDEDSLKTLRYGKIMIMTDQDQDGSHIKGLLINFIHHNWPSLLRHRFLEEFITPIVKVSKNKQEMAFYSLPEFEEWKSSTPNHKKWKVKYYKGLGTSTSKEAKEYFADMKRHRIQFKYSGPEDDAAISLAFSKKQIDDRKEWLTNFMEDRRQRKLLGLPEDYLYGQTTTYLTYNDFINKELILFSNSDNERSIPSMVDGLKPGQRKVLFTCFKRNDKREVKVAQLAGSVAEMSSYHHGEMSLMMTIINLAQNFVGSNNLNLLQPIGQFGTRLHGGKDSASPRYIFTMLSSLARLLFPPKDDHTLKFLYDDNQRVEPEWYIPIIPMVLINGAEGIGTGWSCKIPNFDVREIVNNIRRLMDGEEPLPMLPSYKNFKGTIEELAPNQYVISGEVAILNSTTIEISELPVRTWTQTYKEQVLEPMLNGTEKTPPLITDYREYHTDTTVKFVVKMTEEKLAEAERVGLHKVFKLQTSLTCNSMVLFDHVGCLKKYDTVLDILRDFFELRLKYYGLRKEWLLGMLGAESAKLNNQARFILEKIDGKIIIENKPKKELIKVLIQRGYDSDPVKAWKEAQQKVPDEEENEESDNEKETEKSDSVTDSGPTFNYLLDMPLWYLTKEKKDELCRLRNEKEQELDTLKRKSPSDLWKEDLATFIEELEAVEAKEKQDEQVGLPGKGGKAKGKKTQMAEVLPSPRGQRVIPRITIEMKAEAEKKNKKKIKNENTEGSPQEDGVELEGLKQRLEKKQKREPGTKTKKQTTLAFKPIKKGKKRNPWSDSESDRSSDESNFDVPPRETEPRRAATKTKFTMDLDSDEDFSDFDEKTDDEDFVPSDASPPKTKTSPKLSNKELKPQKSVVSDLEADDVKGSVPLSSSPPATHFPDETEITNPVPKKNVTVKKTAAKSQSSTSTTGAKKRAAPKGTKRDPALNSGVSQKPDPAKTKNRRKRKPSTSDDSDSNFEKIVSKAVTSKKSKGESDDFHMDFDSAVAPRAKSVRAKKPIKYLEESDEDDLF

O=C1CC(NCCNC2CC(=O)NC2=O)C(=O)N1 (stereo not shown) [I-21, N,N′-Di-(pyrrolidine-2′,5′-dione-3′-yl)-ethylene-1,2-diamine]
effect on the VP-16 induced SSBs ([1]; compound from 50-500 uM): No effect on the VP-16
concentration from which topoisomerase II decatenation is inhibited [2]: above 500 uM. IC50
IC50 [2, 8]: ~800 µM
protection class ([3]; compound 500 uM, VP-16 20 uM): + (The + indicates, that the protection. i.e. log(number of surviving cells) is about 1.)
survival ([3]; compound 500 uM, VP-16 20 uM): ≤ 1%
LD50 ([3]; compound alone): LD50 = 750 uM.
toxic to cells ([3]; lower pH): pH 7.4. Tax at lower
toxic to cells ([3]; pH 7.4): Not toxic to cells
inhibition of the toxicity of the classical poisons (protection) [3]: Only very weak

CC(CNC1CC(=O)NC1=O)NC1CC(=O)NC1=O (stereo not shown) [I-112]
inhibition of VP-16 induced SSBs ([1]; compound at 250 uM, FIG. 4: etoposide 3 μM): reversal; also recorded: Effective inhibition of
inhibition of topoisomerase II catalytic activity (decatenation), in words [2]: effectively. IC50 about
IC50 [2, 8]: ~100 µM
protection against VP-16 toxicity [3]: VPneg.
protection class [3, 9]: DAU(0.3[…]uM)+ up to (The + indicates, that the protection. i.e. log(number of surviving cells) is about 1.)
survival [3, 9]: ≤ 20% survival.
LD10 ([3]; compound alone): LD10 = 75 uM.
toxic to cells ([3]; compound given alone): no cytotoxicity; also recorded: Not toxic to cells
inhibition of the toxicity of the classical poisons (protection) [3]: able to protect; also recorded: Inhibits the toxicity of

C[C@@H](CN1CC(=O)NC(=O)C1)N1CC(=O)NC(=O)C1 [ICRF-187, (+)-1,2-bis(3,5-dioxopiperazinyl-1-yl)propane, reference compound]
reversal of etoposide (VP-16) induced SSBs ([1]; compound 500 μM, etoposide 3 μM (FIG. 4)): reversal
inhibition of VP-16 induced SSBs ([1]; compound at 200 uM): Effective inhibition of
protection against anthracycline extravasation injuries [4]: protected
antagonism of etoposide induced DNA cleavage [5]: cleavage. No
inhibition of topoisomerase II catalytic activity (decatenation), in words [2]: effectively. IC50 about
IC50 [2, 8]: ~50 µM
protection class ([3]; compound 500 uM, idarubicin 0.01 μM): (IDA(0.01)+ up to (The + indicates, that the protection. i.e. log(number of surviving cells) is about 1.)
survival ([3]; compound 500 uM, idarubicin 0.03): ≤ 40% survival)*
LD50 ([3]; compound alone): 750 µM
toxic to cells ([3]; compound given alone): no toxicity and Not
inhibition of the toxicity of the classical poisons (protection) [3]: Effective inhibitor of

CCN1C(=O)C=CC1=O [NEM, N-ethyl-maleimide]
DNA damage by the compound itself ([1]; concentrations up to 250 uM): Only limited DNA
antagonism of etoposide induced DNA cleavage [5]: capable of antagonising
stimulation of topoisomerase II mediated DNA cleavage [5]: does not stimulate
antagonism of etoposide induced DNA cleavage [5, 10]: Strong
inhibition of topoisomerase II catalytic activity (decatenation), in words [2]: Very potent,
IC50 [2, 11]: ~4 µM
IC50 [2, 8]: 5 µM
IC50 [3]: 4 µM

CN1C(=O)C=CC1=O [NMM, N-methyl-maleimide]
inhibition of topoisomerase II catalytic activity (decatenation), in words [2]: Very potent,
IC50 [2, 11]: ~4 µM
IC50 [2, 8]: 5 µM
antagonism of etoposide and daunorubicin mediated cytotoxicity [3]: effectively blocked
IC50 [3]: 4 µM

COc1cc([C@@H]2c3cc4c(cc3[C@@H](O[C@@H]3O[C@@H]5CO[C@@H](C)O[C@H]5[C@H](O)[C@H]3O)[C@H]3COC(=O)[C@H]23)OCO4)cc(OC)c1O [etoposide, reference compound]
extractable amount of topoisomerase II ([6]; cells treated with 100 μM): clearly reduced

O=C1C=CC(=O)N1 [maleimide]
antagonism of DNA damage induced by etoposide, daunorubicin or doxorubicin [1]: antagonize
inhibition of VP-16 induced SSBs ([1]; compound at 50 uM): antagonise; also recorded: Effective
antagonism of etoposide induced DNA cleavage [5]: capable of antagonising
stimulation of topoisomerase II mediated DNA cleavage [5]: does not stimulate
antagonism of etoposide induced DNA cleavage [5, 10]: Strong
inhibition of topoisomerase II catalytic activity (decatenation), in words [2]: Very potent,
IC50 [2, 11]: ~2 µM
IC50 [2, 8]: 2 µM
antagonism of etoposide and daunorubicin mediated cytotoxicity [3]: effectively blocked
survival ([3]; compound 0.5 uM, DAU 0.5 uM): up to 10%
protection class ([3]; compound 0.5 uM, VP-16 20 uM): (VP-16 (20 uM)+ (The + indicates, that the protection. i.e. log(number of surviving cells) is about 1.)
survival ([3]; compound 0.5 uM, VP-16 20 uM): up to 30%
LD50 ([3]; compound alone): LD50 4 uM.
toxic to cells ([3]; compound given alone): toxic to cells in itself; also recorded: Very toxic to
inhibition of poison induced cell toxicity ([3]; etoposide 20 μM and daunorubicin 0.3 μM (FIG. 3)): strong
inhibition of the toxicity of the classical poisons (protection) [3]: Effective
cross resistance of MDR cell lines [7]: No cross resistance
band depleting effect of etoposide ([6]; etoposide 100 μM, compound 50 μM (FIG. 10)): completely lost
